Test results reported in patent US8153808B2, “Dihydropyridone amides as P2X7 modulators” (Roche Palo Alto LLC, priority 2008, dated 2012).

Molecular target: T1, P2X7 (UniProt Q99572)
T1 sequence (Q99572 1-595): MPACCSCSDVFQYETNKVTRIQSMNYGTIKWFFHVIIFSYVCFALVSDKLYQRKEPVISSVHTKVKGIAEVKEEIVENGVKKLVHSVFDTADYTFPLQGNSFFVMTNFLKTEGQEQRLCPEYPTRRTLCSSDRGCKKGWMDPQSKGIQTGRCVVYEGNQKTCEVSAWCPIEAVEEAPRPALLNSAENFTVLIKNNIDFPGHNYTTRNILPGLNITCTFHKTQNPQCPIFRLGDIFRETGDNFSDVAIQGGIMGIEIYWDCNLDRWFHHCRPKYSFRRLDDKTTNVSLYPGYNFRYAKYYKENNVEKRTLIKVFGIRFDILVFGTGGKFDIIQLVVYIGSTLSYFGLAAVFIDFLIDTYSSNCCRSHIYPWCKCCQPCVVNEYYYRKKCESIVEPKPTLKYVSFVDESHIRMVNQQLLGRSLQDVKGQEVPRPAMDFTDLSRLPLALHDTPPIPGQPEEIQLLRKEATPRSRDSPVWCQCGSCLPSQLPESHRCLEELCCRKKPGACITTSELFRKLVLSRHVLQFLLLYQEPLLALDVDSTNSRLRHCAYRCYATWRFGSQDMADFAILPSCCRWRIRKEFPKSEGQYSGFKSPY
Assay: pIC50 values for P2X7 (Table 1)
Assay type: cell-based
Procedure: Intracellular Calcium Flux (FLIPR) Assay
Stock solutions of compounds were prepared from powders as a 10 mM DMSO stock solution. These solutions were stored at RT during the two week period of these experiments to prevent freeze-thaw of the DMSO stocks. The DMSO stocks were added to the appropriate assay buffer at a concentration of 10 μM, and then diluted serially to the final concentrations that were tested. […] The aqueous solutions of compounds as well as ATP (Sigma A7699) and BzATP (Sigma B6396) were prepared fresh for each day of experiment.
1321N1 cells stably expressing the full length human P2X7 gene (1321N1-hP2X7) and HEK293 cells stably expressing the full length rat P2X7 gene (HEK293-rP2X7) were obtained from the Roche Cell Culture Facility. 1321N1-hP2X7 cells were grown in Dulbecco's Modified Eagle's Medium (DMEM) high glucose supplemented with 10% FBS and 250 μg/mL G418. HEK293-rP2X7 cells were grown in DMEM/F-12 supplemented with 10% FBS, 1 mM CaCl2, 2 mM MgCl2, 2 mM L-Glutamine and 500 μg/ml G418. Cells were split such that they never became >70% confluent.
On the day prior to the experiment, 1321N1-hP2X7 or HEK293-rP2X7 cells were released into suspension with calcium-free PBS+Versene and washed by centrifugation with calcium-free PBS to remove the Versene. Cells were resuspended in growth medium at a density of 2.5×10^5 cells/mL and seeded into black walled, clear bottom 96 well plates (50,000 cells/well) approximately 18 hr prior to intracellular calcium flux experiments.
On the day of the experiment, plates were washed with FLIPR buffer (calcium- and magnesium-free Hank's Balanced Salt Solution (HBSS) supplemented with 10 mM Hepes, 2.5 mM probenecid and 2 mM calcium chloride) using a BIO-TEK 96 channel plate washer and incubated with […] fluo-3 dye at 37° C. for one hr. The dye was then removed by plate washing and the cells were allowed to equilibrate for 20 min at room temperature with antagonist or vehicle (FLIPR buffer). Agonist (100 μM BzATP final concentration for hP2X7; 5 μM BzATP final concentration or rP2X7) was added online with the FLIPR and fluorescence measurements made at 1 sec intervals for 60 sec followed by 3 sec intervals for a further 4 min (5 min total). A final addition of 5 μM ionomycin was made and the maximal BzATP-evoked fluorescence normalized to the maximal ionomycin-evoked fluorescence.

## Cc1cc(Br)c(CC(=O)N2C=CC(=O)CC2c2ccc(F)cc2)cc1O (stereo not shown) [Compound 33, 1-[2-(2-Bromo-5-hydroxy-4-methyl-phenyl)-acetyl]-2-(4-fluoro-phenyl)-2,3-dihydro-1H-pyridin-4-one]
  pIC50 P2X7: 6.18

## COc1cc(Br)c(CC(=O)N2C=CC(=O)CC2CC2CCCCC2)cc1OC (stereo not shown) [Compound 34, 1-[2-(2-Bromo-4,5-dimethoxy-phenyl)-acetyl]-2-cyclohexylmethyl-2,3-dihydro-1H-pyridin-4-one]
  pIC50 P2X7: 5.94

## COc1cc(Br)c(CC(=O)N2C=CC(=O)CC2c2cccc(F)c2)cc1OC (stereo not shown) [Compound 35, 1-[2-(2-Bromo-4,5-dimethoxy-phenyl)-acetyl]-2-(3-fluoro-phenyl)-2,3-dihydro-1H-pyridin-4-one]
  pIC50 P2X7: 6.815

## COc1cc(CC(=O)N2C=CC(=O)C[C@H]2c2ccc(F)cc2)c(Br)cc1F [Compound 36, (S)-1-[2-(2-Bromo-4-fluoro-5-methoxy-phenyl)-acetyl]-2-(4-fluoro-phenyl)-2,3-dihydro-1H-pyridin-4-one]
  pIC50 P2X7: 7.55

## COc1cc(Br)c(CC(=O)N2C=CC(=O)CC2c2cccc(C)c2)cc1OC (stereo not shown) [Compound 37, 1-[2-(2-Bromo-4,5-dimethoxy-phenyl)-acetyl]-2-m-tolyl-2,3-dihydro-1H-pyridin-4-one]
  pIC50 P2X7: 6.425

## COc1cc(Br)c(CC(=O)N2C=CC(=O)CC2c2ccc(C)cc2)cc1OC (stereo not shown) [Compound 38, 1-[2-(2-Bromo-4,5-dimethoxy-phenyl)-acetyl]-2-p-tolyl-2,3-dihydro-1H-pyridin-4-one]
  pIC50 P2X7: 5.325

## COc1cc(Br)c(CC(=O)N2C=CC(=O)CC2c2cccc(C#N)c2)cc1OC (stereo not shown) [Compound 39, 3-{1-[2-(2-Bromo-4,5-dimethoxy-phenyl)-acetyl]-4-oxo-1,2,3,4-tetrahydro-pyridin-2-yl}-benzonitrile]
  pIC50 P2X7: 5.45

## COc1ccc(CC(=O)N2C=CC(=O)CC2c2ccc(F)cc2)c(OC)c1 (stereo not shown) [Compound 40, 1-[2-(2,4-Dimethoxy-phenyl)-acetyl]-2-(4-fluoro-phenyl)-2,3-dihydro-1H-pyridin-4-one]
  pIC50 P2X7: 5.843

## COc1cc(Br)c(CC(=O)N2C=CC(=O)C[C@H]2c2cccc(F)c2)cc1OC [Compound 41, (S)-1-[2-(2-Bromo-4,5-dimethoxy-phenyl)-acetyl]-2-(3-fluoro-phenyl)-2,3-dihydro-1H-pyridin-4-one]
  pIC50 P2X7: 7.94

## COc1ccc(OC)c(CC(=O)N2C=CC(=O)CC2c2ccc(F)cc2)c1 (stereo not shown) [Compound 42, 1-[2-(2,5-Dimethoxy-phenyl)-acetyl]-2-(4-fluoro-phenyl)-2,3-dihydro-1H-pyridin-4-one]
  pIC50 P2X7: 5.995

## COCCOc1cc(CC(=O)N2C=CC(=O)C[C@H]2c2ccc(F)cc2)c(Br)cc1F [Compound 43, (S)-1-{2-[2-Bromo-4-fluoro-5-(2-methoxy-ethoxy)-phenyl]-acetyl}-2-(4-fluoro-phenyl)-2,3-dihydro-1H-pyridin-4-one]
  pIC50 P2X7: 7.89

## COc1ccc(CC(=O)N2C=CC(=O)C[C@H]2c2ccc(F)cc2)cc1OC [Compound 44, (S)-1-[2-(3,4-Dimethoxy-phenyl)-acetyl]-2-(4-fluoro-phenyl)-2,3-dihydro-1H-pyridin-4-one]
  pIC50 P2X7: 6.003

## COc1ccc(CC(=O)N2C=CC(=O)C[C@H]2c2cccc(F)c2)cc1OC [Compound 45, (S)-1-[2-(3,4-Dimethoxy-phenyl)-acetyl]-2-(3-fluoro-phenyl)-2,3-dihydro-1H-pyridin-4-one]
  pIC50 P2X7: 6.006

## O=C1C=CN(C(=O)Cc2cc(OCCO)c(F)cc2Br)[C@H](c2ccc(F)cc2)C1 [Compound 46, (S)-1-{2-[2-Bromo-4-fluoro-5-(2-hydroxy-ethoxy)-phenyl]-acetyl}-2-(4-fluoro-phenyl)-2,3-dihydro-1H-pyridin-4-one]
  pIC50 P2X7: 7.31

## COc1cc(F)c(CC(=O)N2C=CC(=O)C[C@H]2c2ccc(F)cc2)cc1OC [Compound 47, (S)-1-[2-(2-Fluoro-4,5-dimethoxy-phenyl)-acetyl]-2-(4-fluoro-phenyl)-2,3-dihydro-1H-pyridin-4-one]
  pIC50 P2X7: 6.4

## COc1cc(F)c(CC(=O)N2C=CC(=O)C[C@H]2c2cccc(F)c2)cc1OC [Compound 48, (S)-1-[2-(2-Fluoro-4,5-dimethoxy-phenyl)-acetyl]-2-(3-fluoro-phenyl)-2,3-dihydro-1H-pyridin-4-one]
  pIC50 P2X7: 6.55

## Cc1cc(F)c(OCCO)cc1CC(=O)N1C=CC(=O)C[C@H]1c1ccc(F)cc1 [Compound 49, (S)-1-{2-[4-Fluoro-5-(2-hydroxy-ethoxy)-2-methyl-phenyl]-acetyl}-2-(4-fluoro-phenyl)-2,3-dihydro-1H-pyridin-4-one]
  pIC50 P2X7: 7.12

## O=C1C=CN(C(=O)Cc2cc(OCCO)c(F)cc2Br)[C@H](c2cccc(F)c2)C1 [Compound 50, (S)-1-{2-[2-Bromo-4-fluoro-5-(2-hydroxy-ethoxy)-phenyl]-acetyl}-2-(3-fluoro-phenyl)-2,3-dihydro-1H-pyridin-4-one]
  pIC50 P2X7: 7.65

## COc1cc(Cl)c(CC(=O)N2C=CC(=O)C[C@H]2c2ccc(F)cc2)cc1OC [Compound 51, (S)-1-[2-(2-Chloro-4,5-dimethoxy-phenyl)-acetyl]-2-(4-fluoro-phenyl)-2,3-dihydro-1H-pyridin-4-one]
  pIC50 P2X7: 7.77
